Measurements taken from publication PMC9687610, “Adenosine-Mimicking Derivatives of 3-Aminopyrazine-2-Carboxamide: Towards Inhibitors of Prolyl-tRNA Synthetase with Antimycobacterial Activity” (Biomolecules, 2022).
≈ marks a conversion by molar mass, not a printed value. Where two headings read alike, the source gives them in different places.

Legend:
[1] = system: Lichtheimia corymbifera CCM 8077; test: Antifungal microdilution broth (EUCAST), LC; format: cell-based; conditions: Lichtheimia corymbifera, CCM8077; read after 24 h; read-out: LC MIC
[2] = system: Candida krusei CCM 8271 (ATCC 6258); test: Antifungal microdilution broth (EUCAST), CK; format: cell-based; conditions: Pichia kudriavzevii; read after 24 h; read-out: CK MIC
[3] = system: M. aurum DSM 43999 (ATCC 23366); test: Microplate Alamar Blue Assay (MABA), M. aurum; format: cell-based; conditions: Mycolicibacterium aurum, read-out: M. aurum MIC
[4] = system: HepG2 human hepatocellular carcinoma cells; test: In vitro HepG2 cytotoxicity (CellTiter 96); conditions: for IC50: Homo sapiens, HepG2, 24 h, read-out: HepG2 IC50, 24 h incubation, * limit = highest evaluated concentration (precipitation in medium), ** over the 1000 µM limit; for solubility in the testing medium (in words): HepG2 cell culture medium
[5] = system: Klebsiella pneumoniae CCM 4415 (ATCC 10031); test: Antibacterial microdilution broth (EUCAST), KP; conditions: read after 24 h
[6] = system: Acinetobacter baumannii DSM 30007 (ATCC 19606); test: Antibacterial microdilution broth (EUCAST), ACI; format: cell-based; conditions: Acinetobacter baumannii; read after 24 h; read-out: ACI MIC
[7] = system: Candida parapsilosis CCM 8260 (ATCC 22019); test: Antifungal microdilution broth (EUCAST), CP; format: cell-based; conditions: Lodderomyces parapsilosis; read after 24 h; read-out: CP MIC
[8] = system: Escherichia coli CCM 3954 (ATCC 25922); test: Antibacterial microdilution broth (EUCAST), EC; format: cell-based; conditions: Escherichia coli; read after 24 h; read-out: EC MIC
[9] = system: Aspergillus fumigatus ATCC 204305; test: Antifungal microdilution broth (EUCAST), AF; format: cell-based; conditions: Aspergillus fumigatus, ATCC204305; read after 24 h; read-out: AF MIC
[10] = system: Candida albicans CCM 8320 (ATCC 24433); test: Antifungal microdilution broth (EUCAST), CA; format: cell-based; conditions: Candida albicans; read after 24 h; read-out: CA MIC
[11] = system: Mycobacterium smegmatis DSM 43465 (ATCC 607); test: Microplate Alamar Blue Assay (MABA), M. smegmatis; format: cell-based; conditions: Mycolicibacterium smegmatis, read-out: M. smegmatis MIC
[12] = system: Mycobacterium tuberculosis H37Ra ITM-M006710 (ATCC 9431); test: Microplate Alamar Blue Assay (MABA), Mtb H37Ra; format: cell-based; conditions: Mycobacterium tuberculosis, 120 h, pH 6.6, MABA, Middlebrook 7H9 broth pH 6.6, resazurin after 120 h; read-out: Mtb H37Ra MIC
[13] = system: Staphylococcus epidermidis CCM 4418 (ATCC 12228); test: Antibacterial microdilution broth (EUCAST), SE; format: cell-based; conditions: read after 24 h, read-out: SE MIC
[14] = system: Staphylococcus aureus subsp. aureus CCM 4223 (ATCC 29213); test: Antibacterial microdilution broth (EUCAST), SA; format: cell-based; conditions: Staphylococcus aureus; read after 24 h; read-out: SA MIC
[15] = system: Enterococcus faecalis CCM 4224 (ATCC 29212); test: Antibacterial microdilution broth (EUCAST), EF; format: cell-based; conditions: Enterococcus faecalis; read after 24 h; read-out: EF MIC
[16] = system: Aspergillus flavus CCM 8363; test: Antifungal microdilution broth (EUCAST), AFla; format: cell-based; conditions: Aspergillus flavus, CCM8363; read after 24 h; read-out: AFla MIC
[17] = system: Staphylococcus aureus subsp. aureus methicillin-resistant (MRSA) CCM 4750 (ATCC 43300); test: Antibacterial microdilution broth (EUCAST), MRSA; format: cell-based; conditions: Staphylococcus aureus; read after 24 h; read-out: MRSA MIC
[18] = system: Candida tropicalis CCM 8264 (ATCC 750); test: Antifungal microdilution broth (EUCAST), CT; format: cell-based; conditions: Candida tropicalis; read after 24 h; read-out: CT MIC
[19] = system: Trichophyton interdigitale CCM 8377 (ATCC 9533); test: Antifungal microdilution broth (EUCAST), TI; format: cell-based; conditions: Trichophyton interdigitale, 72 h, read-out: TI MIC
[20] = system: Pseudomonas aeruginosa CCM 3955 (ATCC 27853); test: Antibacterial microdilution broth (EUCAST), PA; format: cell-based; conditions: Pseudomonas aeruginosa; read after 24 h; read-out: PA MIC

SMILES	MIC [1] [µM]	MIC [2] [µM]	MIC ([3]; 72 h) [µg/mL]	IC50 [4] [µM]	KP MIC [5] [µM]	MIC [6] [µM]	MIC [7] [µM]	MIC [8] [µM]	MIC [9] [µM]	MIC [10] [µM]	melting point [°C]	MIC [12] [µg/mL]	MIC [13] [µM]	MIC [14] [µM]	MIC [15] [µM]	MIC [16] [µM]	MIC [17] [µM]	MIC [18] [µM]	MIC [19] [µM]	MIC [20] [µM]	further results
COc1ccc(C(=O)Nc2nccnc2C(N)=O)cc1 [Compound 9]	> 125	> 125	≥ 125	> 250	> 125	> 125	> 125	> 125	> 125	> 125	257 to 258.5	≥ 125	> 125	> 125	> 125	> 125	> 125	> 125	> 125	> 125	MIC ([11]; 48 h): ≥ 125 µg/mL
NC(=O)c1nccnc1NC(=O)c1ccccc1F [Compound 10]	> 500	> 500	–	556	> 500	> 500	> 500	> 500	> 500	> 500	211 to 213	250 (≈ 961 µM)	> 500	> 500	> 500	> 500	> 500	> 500	> 500	> 500	MIC ([3]; MABA, resazurin after 72 h): ≥ 500 µg/mL; MIC ([11]; MABA, resazurin after 48 h): ≥ 500 µg/mL
NC(=O)c1nccnc1NC(=O)c1cccc(F)c1 [Compound 11]	> 250	> 250	≥ 125	> 50	> 250	> 250	> 250	> 250	> 250	> 250	234.1 to 236	≥ 125	> 250	> 250	> 250	> 250	> 250	> 250	> 250	> 250	solubility in the testing medium (in words) [4]: low solubility; MIC ([11]; 48 h): ≥ 125 µg/mL
NC(=O)c1nccnc1NC(=O)c1ccccc1Br [Compound 16]	> 500	> 500	–	> 500	> 500	> 500	> 500	> 500	> 500	> 500	223.1 to 225.1	≥ 250	> 500	> 500	> 500	> 500	> 500	> 500	> 500	> 500	MIC ([3]; MABA, resazurin after 72 h): ≥ 250 µg/mL; MIC ([11]; MABA, resazurin after 48 h): ≥ 250 µg/mL
NC(=O)c1nccnc1NC(=O)c1cccc(Br)c1 [Compound 17]	> 125	> 125	≥ 125	> 5	> 125	> 125	> 125	> 125	> 125	> 125	255 to 256	≥ 125	> 125	> 125	> 125	> 125	> 125	> 125	> 125	> 125	solubility in the testing medium (in words) [4]: low solubility; MIC ([11]; 48 h): ≥ 125 µg/mL
NC(=O)c1nccnc1NC(=O)c1cc(Cl)cc(Cl)c1 [Compound 19]	> 500	> 500	≥ 62.5	> 250	> 500	> 500	> 500	> 500	> 500	> 500	> 300	≥ 62.5	> 500	> 500	> 500	> 500	> 500	> 500	> 500	> 500	MIC ([11]; 48 h): ≥ 62.5 µg/mL
